Laboratory results as given in patent US8017791B2, “Tri-substituted 2-benzhydryl-5-benzylamino-tetrahydro-pyran-4-ol and 6-benzhydryl-4-benzylamino-tetrahydro-pyran-3-ol analogues, and novel, 3,6-disubstituted pyran derivatives” (Wayne State University, priority 2003, dated 2011).
Counter-ions that a name gives are not always drawn.

Assays:
DAT [1] = target: T1, DAT (Rattus norvegicus, UniProt P23977); experiment: Inhibition of [3H]DA uptake by DAT into rat striatal synaptosomes; format: biochemical; settings: for IC50: read-out: DAT uptake, IC50 [3H]DA; for [3H]DA uptake/DAT binding: Table 3, ratio of IC50 values
T1 construct: rat striatum was the source for DAT, and cerebral cortex for SERT and NET; from tissue; P2 synaptosomal fraction for uptake
Protocol: (§1) Biology. […] Briefly, rat striatum was the source for DAT, and cerebral cortex for SERT and NET. […] Test compounds were dissolved in dimethyl sulfoxide (DMSO) and diluted out in 10% (v/v) DMSO. […] At least five triplicate concentrations of each test compound were studied, spaced evenly around the IC50 value. For DAT uptake assays, uptake of 50 nM [^3H]DA into rat striatal synaptosomes was measured exactly as described by us previously. Briefly, rat striatal P2 membrane fractions were incubated with test compounds for 8 min followed by the additional presence of [^3H]DA for 4 min at 25?. […] Construction of inhibition curves and dissolvement of test compounds were as described above.

DAT [2] = target: T1, DAT; experiment: Inhibition of [3H]WIN 35,428 binding to DAT
Protocol: as §1

T1 sequence (P23977 whole entry): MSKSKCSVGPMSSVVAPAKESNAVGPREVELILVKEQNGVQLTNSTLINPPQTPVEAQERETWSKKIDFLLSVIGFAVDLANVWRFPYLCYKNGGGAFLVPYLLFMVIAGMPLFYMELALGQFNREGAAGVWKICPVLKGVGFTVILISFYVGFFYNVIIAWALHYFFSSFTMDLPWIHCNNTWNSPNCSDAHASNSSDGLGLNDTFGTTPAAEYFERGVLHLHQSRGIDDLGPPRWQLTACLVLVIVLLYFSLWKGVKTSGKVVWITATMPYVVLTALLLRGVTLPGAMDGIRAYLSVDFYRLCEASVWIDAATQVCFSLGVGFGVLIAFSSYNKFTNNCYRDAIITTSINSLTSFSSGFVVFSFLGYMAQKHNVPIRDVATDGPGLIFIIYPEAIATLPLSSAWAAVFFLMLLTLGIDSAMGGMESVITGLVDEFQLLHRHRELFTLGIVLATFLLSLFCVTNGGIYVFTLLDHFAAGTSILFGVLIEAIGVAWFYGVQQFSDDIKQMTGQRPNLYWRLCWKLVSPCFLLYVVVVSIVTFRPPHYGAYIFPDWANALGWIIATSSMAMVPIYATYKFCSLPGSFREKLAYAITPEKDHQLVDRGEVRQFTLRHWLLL

melting point [°C]	SMILES	other results
208 to 210	c1ccc(CN[C@H]2CC[C@@H](C(c3ccccc3)c3ccccc3)OC2)cc1 (relative stereo) (as salt: oxalate) [Compound 16k, Cis-(6-benzhydryl-tetrahydropyran-3-yl)-benzyl-amine]	
136 to 138	Oc1ccc(CN[C@@H]2CC[C@H](C(c3ccccc3)c3ccccc3)OC2)cc1 (as salt: oxalate) [(+)-37a, cis-(3R,6R)-(6-benzhydryl-tetrahydropyran-3-yl)-(4-hydroxy-benzyl)-amine]	
260 to 261	N[C@H]1CC[C@@H](C(c2ccccc2)c2ccccc2)OC1 (relative stereo) (as salt: HCl) [Compound 15, Cis-(6-benzhydryl-tetrahydropyran-3-yl)-amine]	
250 to 252	Brc1ccc(CN[C@H]2CC[C@@H](C(c3ccccc3)c3ccccc3)OC2)cc1 (relative stereo) (as salt: oxalate) [Compound 16l, Cis-(6-benzhydryl-tetrahydropyran-3-yl)-(4-bromo-benzyl)-amine]	
240 to 242	Fc1ccc(CCN[C@H]2CC[C@@H](C(c3ccccc3)c3ccccc3)OC2)cc1 (relative stereo) (as salt: oxalate) [Compound 16p, Cis-(6-benzhydryl-tetrahydropyran-3-yl)-[2-(4-fluoro-phenyl)-ethyl]-amine]	

More lines, now with the values behind:

SMILES	melting point [°C]	other results
COc1ccc(CN[C@H]2CC[C@@H](C(c3ccccc3)c3ccccc3)OC2)cc1 (relative stereo) (as salt: oxalate) [Compound 16e, Cis-(6-benzhydryl-tetrahydropyran-3-yl)-(4-methoxy-benzyl)-amine]	215 to 217	
N[C@H]1CC[C@@H](C(c2ccccc2)c2ccccc2)OC1 (relative stereo) [Compound 15, Cis-(6-benzhydryl-tetrahydropyran-3-yl)-amine]		IC50 (DAT [1]; Table 2, average ± SEM): 251 ± 31 nM; [3H]DA uptake/DAT binding (DAT [1]): 0.32; activity at DAT, in words (DAT [2]): little or no activity at the DAT; IC50 (DAT [2]; Table 2, average ± SEM of three to eight experiments, read-out: DAT binding, IC50, [3H]Win 35,428): 777 ± 41 nM
O[C@@H]1C[C@@H](C(c2ccccc2)c2ccccc2)OC[C@H]1NCCc1ccc(F)cc1 (as salt: oxalate) [(−)-29c, (2S,4R,5R)-2-benzhydryl-5-[2-(4-fluoro-phenyl)-ethylamino]-tetrahydropyran-4-ol]	205 to 207	
COc1ccc(CN[C@H]2CO[C@@H](C(c3ccccc3)c3ccccc3)C[C@@H]2O)cc1 (as salt: oxalate) [(+)-29a, (2R,4S,5S)-2-benzhydryl-5-(4-methoxy-benzylamino)-tetrahydro-pyran-4-ol]	230 to 232	
COc1ccc(CN[C@@H]2CO[C@H](C(c3ccccc3)c3ccccc3)C[C@H]2O)c(OC)c1 (as salt: oxalate) [(−)-29e, (2S,4R,5R)-2-benzhydryl-5-(2,4-dimethoxy-benzylamino)-tetrahydropyran-4-ol]	208 to 210	
O[C@H]1C[C@H](C(c2ccccc2)c2ccccc2)OC[C@@H]1NCc1ccc2[nH]ccc2c1 [(+)-32b, (2R,4S,5S)-2-benzhydryl-5-[(1H-indol-5-ylmethyl)-amino]-tetrahydropyran-4-ol]		IC50 (DAT [1]; Table 4, rat brain): 247 ± 21 nM; IC50 (DAT [2]; Table 4, rat brain, read-out: DAT binding, IC50, [3H]Win 35,428): 494 ± 96 nM
O=[N+]([O-])c1ccc(CN[C@H]2CC[C@@H](C(c3ccccc3)c3ccccc3)OC2)cc1 (relative stereo) (as salt: oxalate) [Compound 16d, Cis-(6-benzhydryl-tetrahydropyran-3-yl)-(4-nitro-benzyl)-amine]	236 to 238	
O[C@@H]1C[C@@H](C(c2ccccc2)c2ccccc2)OC[C@H]1NCc1ccc(F)cc1 (as salt: oxalate) [(−)-29b, (2S,4R,5R)-2-benzhydryl-5-(4-fluoro-benzylamino)-tetrahydro-pyran-4-ol]	222 to 223	
COc1ccc(CN[C@H]2CC[C@@H](C(c3ccccc3)c3ccccc3)OC2)cc1 (relative stereo) [Compound 16e, Cis-(6-benzhydryl-tetrahydropyran-3-yl)-(4-methoxy-benzyl)-amine]		IC50 (DAT [1]; Table 2, average ± SEM): 59.5 ± 11.6 nM; [3H]DA uptake/DAT binding (DAT [1]): 0.71; IC50 (DAT [2]; read-out: IC50 at the DAT): 84 nM
